According to ChEMBL document CHEMBL4706477, “Synthesis and Biological Evaluation of Calothrixins B and their Deoxygenated Analogues” (J Med Chem, 2018):
Active and inactive are the calls of the source. The calls are words filed in the database; no cut-off is given here.

Columns and labels:
[1] = target: T1, DNA topoisomerase 2-alpha (Homo sapiens, UniProt P11388); test: Inhibition of recombinant human topoisomerase 2 assessed as decrease in relaxation of supercoiled pBlue-Script KS(+) plasmid DNA at 40 uM incubated for 30 mins by ethidium bromide staining based gel electrophoresis method relative to control
T1 sequence (P11388 whole entry): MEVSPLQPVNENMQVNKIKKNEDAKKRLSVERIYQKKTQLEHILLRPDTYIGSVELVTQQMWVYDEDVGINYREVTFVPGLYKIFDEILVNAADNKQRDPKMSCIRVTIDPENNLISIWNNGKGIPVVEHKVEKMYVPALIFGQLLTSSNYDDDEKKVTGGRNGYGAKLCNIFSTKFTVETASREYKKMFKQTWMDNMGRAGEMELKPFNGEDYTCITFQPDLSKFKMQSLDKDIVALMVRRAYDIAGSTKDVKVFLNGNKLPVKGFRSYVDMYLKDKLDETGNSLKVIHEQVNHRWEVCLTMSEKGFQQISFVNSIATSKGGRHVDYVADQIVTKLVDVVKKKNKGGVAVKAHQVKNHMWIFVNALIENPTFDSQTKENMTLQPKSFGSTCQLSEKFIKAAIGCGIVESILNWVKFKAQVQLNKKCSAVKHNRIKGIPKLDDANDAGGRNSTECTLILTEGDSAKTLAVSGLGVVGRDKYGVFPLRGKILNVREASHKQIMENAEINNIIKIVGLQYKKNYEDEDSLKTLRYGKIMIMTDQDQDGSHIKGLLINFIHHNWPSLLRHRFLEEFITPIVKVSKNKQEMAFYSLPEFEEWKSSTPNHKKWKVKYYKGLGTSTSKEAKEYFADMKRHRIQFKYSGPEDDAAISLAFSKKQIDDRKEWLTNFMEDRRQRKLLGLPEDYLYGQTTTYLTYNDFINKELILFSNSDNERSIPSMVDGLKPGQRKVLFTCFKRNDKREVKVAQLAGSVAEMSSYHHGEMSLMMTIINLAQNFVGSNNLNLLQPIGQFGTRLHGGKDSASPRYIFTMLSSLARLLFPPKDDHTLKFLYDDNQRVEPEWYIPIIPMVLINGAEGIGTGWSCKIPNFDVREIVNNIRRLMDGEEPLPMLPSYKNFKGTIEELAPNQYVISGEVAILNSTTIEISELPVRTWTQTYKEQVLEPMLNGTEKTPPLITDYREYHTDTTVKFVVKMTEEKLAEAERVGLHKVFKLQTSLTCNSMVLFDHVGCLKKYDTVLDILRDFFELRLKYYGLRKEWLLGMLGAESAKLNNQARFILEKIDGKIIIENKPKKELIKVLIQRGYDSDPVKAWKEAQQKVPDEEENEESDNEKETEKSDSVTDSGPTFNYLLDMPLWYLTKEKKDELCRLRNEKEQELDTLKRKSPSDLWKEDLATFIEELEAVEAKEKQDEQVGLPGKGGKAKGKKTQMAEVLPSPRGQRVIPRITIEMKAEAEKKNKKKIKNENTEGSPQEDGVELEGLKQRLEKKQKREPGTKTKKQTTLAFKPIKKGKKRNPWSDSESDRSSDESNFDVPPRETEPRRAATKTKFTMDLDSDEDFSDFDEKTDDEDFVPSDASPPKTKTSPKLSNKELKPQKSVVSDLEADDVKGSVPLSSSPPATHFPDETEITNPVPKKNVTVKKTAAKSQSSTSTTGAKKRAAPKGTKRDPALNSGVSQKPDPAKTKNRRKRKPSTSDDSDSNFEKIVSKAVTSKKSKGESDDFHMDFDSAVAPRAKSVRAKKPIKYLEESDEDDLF

[2] = system: HEK293; test: Antiproliferative activity against human HEK293 cells assessed as reduction in cell viability incubated for 48 hrs by sulphorhodamine B assay; assay type: functional
[3] = system: A549; test: Antiproliferative activity against human A549 cells assessed as reduction in cell viability incubated for 48 hrs by sulphorhodamine B assay; assay type: functional
[4] = system: HCT-116; test: Anticlonogenic activity against human HCT-116 cells assessed as inhibition of colony formation at 5 uM incubated for 48 hrs followed by compound washout with PBS and measured after 14 days by crystal violet staining based analysis; assay type: functional, cell-based
[5] = system: NCI-H460; test: Anticlonogenic activity against human NCI-H460 cells assessed as inhibition of colony formation at 5 uM incubated for 48 hrs followed by compound washout with PBS and measured after 14 days by crystal violet staining based analysis; assay type: functional, cell-based
[6] = system: HCT-116; test: Induction of cell cycle arrest in human HCT-116 cells at 5 uM incubated for 20 hrs by propidium iodide staining based flow cytometry analysis; assay type: functional
[7] = system: HCT-116; test: Induction of cell cycle arrest in human HCT-116 cells assessed as accumulation of cells at G2/M phase at 5 uM incubated for 48 hrs by propidium iodide staining based flow cytometry analysis; assay type: functional
[8] = target: T1, DNA topoisomerase 2-alpha; test: Inhibition of recombinant human topoisomerase 2 assessed as decrease in relaxation of supercoiled pBlue-Script KS(+) plasmid DNA at 200 uM incubated for 30 mins by ethidium bromide staining based gel electrophoresis method
[9] = target: T1, DNA topoisomerase 2-alpha; test: Inhibition of recombinant human topoisomerase 2 assessed as decrease in relaxation of supercoiled pBlue-Script KS(+) plasmid DNA incubated for 30 mins by ethidium bromide staining based gel electrophoresis method
[10] = target: T1, DNA topoisomerase 2-alpha; test: Inhibition of human topoisomerase 2 assessed as inhibition of etoposide-induced DNA cleavage complex formation by measuring linear DNA formation at 30 to 50 uM incubated for 30 mins using pRYG DNA as substrate by agarose gel electrophoresis analysis; conditions: dose 30-50 µM
[11] = system: HCT-116; test: Induction of DNA damage in human HCT-116 cells assessed as tail length at 5 uM incubated for 48 hrs by alkaline Comet assay relative to control; assay type: functional, cell-based
[12] = system: NCI-H460; test: Induction of DNA damage in human NCI-H460 cells at 5 uM incubated for 48 hrs by alkaline Comet assay relative to control; assay type: functional, cell-based
[13] = system: Calf thymus DNA; test: Binding affinity to calf thymus DNA assessed as hyperchromic effect measured at 299 nm at 3*10^-5 mol/L by double beam UV-Vis spectroscopic analysis; assay type: nucleic-acid assay; conditions: Bos taurus
[14] = system: Calf thymus DNA; test: Binding affinity to calf thymus DNA assessed as DNA intercalation by measuring positive CD band at 20*10^-6 mol/L by CD spectroscopy; assay type: nucleic-acid assay; conditions: Bos taurus
[15] = system: Calf thymus DNA; test: Binding affinity to calf thymus DNA assessed as DNA intercalation by measuring positive CD band at 26.6*10^-6 mol/L by CD spectroscopy; assay type: nucleic-acid assay; conditions: Bos taurus
[16] = target: T2, DNA topoisomerase 1 (Homo sapiens) (UniProt P11387); test: Inhibition of human topoisomerase 1 assessed as induction of negative supercoiled DNA using relaxed pBlue-Script KS(+) plasmid DNA as substrate measured after 15 mins by agarose gel electrophoresis analysis; conditions: dose 60-100 µM
T2 sequence (whole entry): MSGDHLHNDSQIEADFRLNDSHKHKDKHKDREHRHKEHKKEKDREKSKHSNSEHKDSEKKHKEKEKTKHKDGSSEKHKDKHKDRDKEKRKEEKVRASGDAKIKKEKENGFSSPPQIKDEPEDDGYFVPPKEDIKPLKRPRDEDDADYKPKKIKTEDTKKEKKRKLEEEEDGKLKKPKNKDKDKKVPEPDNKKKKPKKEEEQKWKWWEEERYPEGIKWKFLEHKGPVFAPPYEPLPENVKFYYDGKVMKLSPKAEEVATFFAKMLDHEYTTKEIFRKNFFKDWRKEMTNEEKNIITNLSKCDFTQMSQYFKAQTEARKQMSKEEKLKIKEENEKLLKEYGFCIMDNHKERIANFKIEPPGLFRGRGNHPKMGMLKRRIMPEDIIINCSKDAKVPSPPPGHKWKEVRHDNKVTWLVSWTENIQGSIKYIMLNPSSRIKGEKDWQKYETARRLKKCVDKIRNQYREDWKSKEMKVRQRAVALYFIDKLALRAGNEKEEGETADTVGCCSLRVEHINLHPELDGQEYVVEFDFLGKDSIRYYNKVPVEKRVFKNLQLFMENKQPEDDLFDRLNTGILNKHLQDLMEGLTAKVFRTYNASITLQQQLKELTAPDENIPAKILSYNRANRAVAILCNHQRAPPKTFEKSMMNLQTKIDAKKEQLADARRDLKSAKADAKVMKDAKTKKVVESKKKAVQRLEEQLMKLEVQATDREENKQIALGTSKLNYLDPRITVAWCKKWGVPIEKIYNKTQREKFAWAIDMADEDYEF

[17] = system: Jurkat; test: cells; conditions: Homo sapiens, 48 h
Description: Antiproliferative activity against human Jurkat cells assessed as reduction in cell viability incubated for 48 hrs by sulphorhodamine B assay

[18] = system: HeLa; test: cells; conditions: Homo sapiens, 48 h
Description: Antiproliferative activity against human HeLa cells assessed as reduction in cell viability incubated for 48 hrs by sulphorhodamine B assay

[19] = system: SiHa; test: cells; conditions: Homo sapiens, 48 h
Description: Antiproliferative activity against human SiHa cells assessed as reduction in cell viability incubated for 48 hrs by sulphorhodamine B assay

[20] = system: MCF7; test: cells; conditions: Homo sapiens, MCF7, 48 h
Description: Antiproliferative activity against human MCF7 cells assessed as reduction in cell viability incubated for 48 hrs by sulphorhodamine B assay

[21] = system: HCT-116; test: cells; conditions: Homo sapiens, HCT-116, 48 h
Description: Antiproliferative activity against human HCT-116 cells assessed as reduction in cell viability incubated for 48 hrs by sulphorhodamine B assay

[22] = system: U-251; test: cells; conditions: Homo sapiens, U-251, 48 h
Description: Antiproliferative activity against human U-251 cells assessed as reduction in cell viability incubated for 48 hrs by sulphorhodamine B assay

[23] = system: NCI-H460; test: cells; conditions: Homo sapiens, NCI-H460, 48 h
Description: Antiproliferative activity against human NCI-H460 cells assessed as reduction in cell viability incubated for 48 hrs by sulphorhodamine B assay

[24] = system: MDA-MB-231; test: cells; conditions: Homo sapiens, MDA-MB-231, 48 h
Description: Antiproliferative activity against human MDA-MB-231 cells assessed as reduction in cell viability incubated for 48 hrs by sulphorhodamine B assay

[25] = physchem; conditions: octanol/water
Description: Octanol/water partition coefficient, log P of the compound

[26] = physchem; conditions: octanol/buffer, pH 7.4
Description: Octanol/buffer distribution coefficient, log D of the compound at pH 7.4

Compound `c1ccc2c(c1)ncc1cc3c(cc12)[nH]c1ccccc13` has an inhibition [1] of 97%, a GI50 [2] of over 4 µM and a GI50 [3] of over 4 µM. The inhibition [4] was “inactive”, the inhibition [5] was “inactive” and the Activity [6] was “inactive”. The Activity [7] was “inactive”, the inhibition [8] was 100% and the IC50 [9] was 23.4 µM. The IC90 [9] was 41.5 µM, the inhibition [9] was “Dose-dependent effect” and the inhibition [10] was “Active”. For the same compound, the Activity [11] was “inactive”, the Activity [12] was “inactive” and the Activity [13] was 30%. The Activity [14] was “Active”, the Activity [15] was “Active” and the Activity [16] was “Dose-dependent effect”. It also gave a GI50 [17] of 4 µM, a GI50 [18] of 0.41 µM and a GI50 [19] of over 4 µM. The GI50 [20] was over 4 µM, the GI50 [21] was 11.5 µM and the GI50 [22] was over 4 µM. For the same compound, the GI50 [23] was 5.5 µM, the GI50 [24] was over 4 µM and the logP [25] was -1.25. For the same compound, the logD [26] was -1.55.
